As a reminder, the pEC50 is −log10 of the EC50, conventionally taken in molar units.

The source of these data is BindingDB's records for patent US20250163061 (Bala Therapeutics, 2025).

The structures appear in SMILES notation. pEC50: −log10 of the molar value. A value given as a limit tells only on which side of the number the result lay.

This test addresses T1, Menin (Homo sapiens, UniProt O00255).
T1 sequence (O00255 whole entry): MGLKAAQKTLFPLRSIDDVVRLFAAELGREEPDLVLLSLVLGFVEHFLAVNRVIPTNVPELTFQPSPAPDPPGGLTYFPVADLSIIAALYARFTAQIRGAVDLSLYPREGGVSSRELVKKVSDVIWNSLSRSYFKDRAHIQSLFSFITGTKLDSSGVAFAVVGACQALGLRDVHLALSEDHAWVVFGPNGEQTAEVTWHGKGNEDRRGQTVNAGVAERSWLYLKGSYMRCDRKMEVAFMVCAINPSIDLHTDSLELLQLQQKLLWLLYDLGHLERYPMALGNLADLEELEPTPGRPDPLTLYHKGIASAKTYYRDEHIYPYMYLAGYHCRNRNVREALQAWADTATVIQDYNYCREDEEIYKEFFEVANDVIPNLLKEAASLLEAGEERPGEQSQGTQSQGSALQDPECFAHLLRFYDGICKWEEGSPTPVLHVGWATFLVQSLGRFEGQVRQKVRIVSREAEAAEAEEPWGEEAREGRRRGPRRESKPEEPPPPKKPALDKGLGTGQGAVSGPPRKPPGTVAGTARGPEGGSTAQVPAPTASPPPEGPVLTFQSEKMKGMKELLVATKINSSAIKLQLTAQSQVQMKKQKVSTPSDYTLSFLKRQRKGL
The test is described as follows: Primary Assay Used to Determine Potency of MEN1 Activity Inhibition. The method, then:
Compound activity was determined using recombinant MEN1 protein (Creativebiomart, Cat #MEN1-35H) and a custom fluorescein-labeled MLL4-43 peptide (Eton Bioscience Inc.). Interaction between MEN1 and MLL4-43 in the presence of compounds was determined by fluorescence polarization assay using a Microplate Reader ClarioStar Plus. The reaction was carried out in assay buffer (50 mM TRIS-HCl pH 7.4-7.6, 50 mM NaCl, 1 mM DTT, 0.1 mg/ml BSA). The compounds were dispensed on a 384 well Diamond Well Plate (Axigen, Cat #P-384-120SQ-C-S) using the Biomek FX liquid handling system at 100× solutions of compounds in DMSO. 2×MEN1 mix (final concentration of MEN1 10 nM) was prepared in Assay buffer and 10 μl of mixture per well was added into 384 w white Reaction plate with NBS (Corning, Cat #4513). 10 μl of Assay buffer w/o MEN1 was used for negative control. Plates were centrifuged for 1 min at 100 g. Next step the Compounds were added to Reaction plate using Biomek station via following steps: 3 μl of 100× compounds (in DMSO) were mixed thoroughly with 27 μl Assay Buffer, then 2 μl of this mixture was added to Reaction plate with 10 μl of MEN1 mix. Plates were centrifuged for 1 min at 100 g and incubated for 20 min at room temperature. Next 8 μL of MLL4-43 peptide per well was added to final concentration of MLL 0.5 nM. Plates were incubated for 1 hour at room temperature. Then fluorescence polarization was measured using Microplate Reader.
`Cc1c(CN2CCC3(CC2)CN(c2ncnc4ccc(CC(F)(F)F)cc24)C3)ccc2c1cc(C#N)n2CCN1CCNC1=O` showed a pEC50 above 7.12.
The compound `Cc1c(CN2CCC3(CC2)CN(c2ncnc4ccc(CC(F)(F)F)cc24)C3)ccc2c1cc(C#N)n2CC12CC(NS(C)(=O)=O)(C1)C2` had a pEC50 above 7.12.
Compound `N#Cc1cc2cc(CN3CCC4(CC3)CN(c3ncnc5ccc(CC(F)(F)F)cc35)C4)ccc2[nH]1` showed a pEC50 above 7.12.
As for `Cc1c(CN2CCC3(CC2)CN(c2ncnc4ccc(OC(F)(F)F)cc24)C3)ccc2c1cc(C#N)n2C[C@@H]1CNC(=O)CO1` [US20250163061, Compound 1], the pEC50 was above 7.12.
The compound `Cc1c(CN2CCC3(CC2)CN(c2ncnc4ccc(CC(F)(F)F)cc24)C3)ccc2c1cc(C#N)n2CC1CCNC(=O)CO1` (stereo not given) [US20250163061, Compound 2] gave a pEC50 above 7.12.
Under `Cc1c(CN2CCC3(CC2)CN(c2ncnc4ccc(CC(F)(F)F)cc24)C3)ccc2c1cc(C#N)n2CC1CNC(=O)NC1` [US20250163061, Compound 4] stands above 7.12; under `Cc1c(CN2CCC3(CC2)CN(c2ncnc4ccc(CC(F)(F)F)cc24)C3)ccc2c1cc(C#N)n2CC1CCNC(=O)CC1` (stereo not given) [US20250163061, Compound 5], above 7.12; under `Cc1c(CN2CCC3(CC2)CN(c2ncnc4ccc(CC(F)(F)F)cc24)C3)ccc2c1cc(C#N)n2CC1CNC(=O)C(C)O1` (stereo not given) [US20250163061, Compound 7], above 7.12.
`Cc1c(CN2CCC3(CC2)CN(c2ncnc4ccc(CC(F)(F)F)c(F)c24)C3)ccc2c1cc(C#N)n2CC1CNC(=O)CO1` (stereo not given) [US20250163061, Compound 12]: the pEC50 is above 7.12.
Compound `Cc1c(CN2CCC3(CC2)CN(c2ncnc4ccc(CC(F)(F)F)cc24)C3)ccc2c1cc(C#N)n2C(C)CCN1CCN(S(C)(=O)=O)CC1` (stereo not given) [US20250163061, Compound 13] showed a negative-log EC50 (pEC50) above 7.12.
Compound `Cc1c(CN2CCC3(CC2)CN(c2ncnc4ccc(CC(F)(F)F)cc24)C3)ccc2c1cc(C#N)n2Cc1ccc(=O)[nH]c1` [US20250163061, Compound 14] gave a negative logarithm of the EC50 (pEC50) above 7.12.
Under `Cc1c(CN2CCC3(CC2)CN(c2ncnc4ccc(CC(F)(F)F)cc24)C3)ccc2c1cc(C#N)n2CC1CN(C)C(=O)CO1` (stereo not given) [US20250163061, Compound 15] stands above 7.12; under `Cc1c(CN2CCC3(CC2)CN(c2ncnc4ccc(CC(F)(F)F)cc24)C3)ccc2c1cc(C#N)n2CC1CN(C)S(=O)(=O)CO1` (stereo not given) [US20250163061, Compound 16], above 7.12; under `CCCCS(=O)(=O)N1CCN(C(C)Cn2c(C#N)cc3c(C)c(CN4CCC5(CC4)CN(c4ncnc6ccc(CC(F)(F)F)cc46)C5)ccc32)CC1` (stereo not given) [US20250163061, Compound 17], above 7.12.
`COc1cc2c(cc1CN1CCC3(CC1)CN(c1ncnc4ccc(CC(F)(F)F)cc14)C3)cc(C#N)n2CC(C)N1CCN(S(C)(=O)=O)CC1` (stereo not given) [US20250163061, Compound 20] gave a pEC50 above 7.12.
For `Cc1c(CN2CCC3(CC2)CN(c2ncnc4ccc(CC(F)(F)F)cc24)C3)ccc2c1cc(C#N)n2CC1CNS(=O)(=O)CO1` (stereo not given) [US20250163061, Compound 21], the negative logarithm of the EC50 (pEC50) is above 7.12.
Regarding `Cc1c(CN2CCC3(CC2)CN(c2ncnc4ccc(CC(F)(F)F)cc24)C3)ccc2c1cc(C#N)n2CC1CCNC(=O)C1` (stereo not given) [US20250163061, Compound 22], the pEC50 was above 7.12.
Under `Cc1c(CN2CCC3(CC2)CN(c2ncnc4ccc(CC(F)(F)F)cc24)C3)ccc2c1cc(C#N)n2[C@H](C)CN1CCN(S(C)(=O)=O)CC1` [US20250163061, Compound 23] stands above 7.12; under `Cc1c(CN2CCC3(CC2)CN(c2ncnc4ccc(CC(F)(F)F)cc24)C3)ccc2c1cc(C#N)n2[C@@H](C)CN1CCN(S(C)(=O)=O)CC1` [US20250163061, Compound 24], above 7.12; under `CCS(=O)(=O)N1CCN([C@H](C)Cn2c(C#N)cc3c(C)c(CN4CCC5(CC4)CN(c4ncnc6ccc(CC(F)(F)F)cc46)C5)ccc32)C[C@@H]1C` [US20250163061, Compound 25], above 7.12.
Compound `CCS(=O)(=O)N1CCN([C@@H](C)Cn2c(C#N)cc3c(C)c(CN4CCC5(CC4)CN(c4ncnc6ccc(CC(F)(F)F)cc46)C5)ccc32)C[C@@H]1C` [US20250163061, Compound 26] had a pEC50 above 7.12.
The compound `Cc1c(CN2CCC3(CC2)CN(c2ncnc4ccc(CC(F)(F)F)cc24)C3)ccc2c1cc(C#N)n2C[C@@H](C)N1CCN(S(C)(=O)=O)[C@@H](C)C1` [US20250163061, Compound 27] had a pEC50 above 7.12.
For the compound `Cc1c(CN2CCC3(CC2)CN(c2ncnc4ccc(CC(F)(F)F)cc24)C3)ccc2c1cc(C#N)n2C[C@H](C)N1CCN(S(C)(=O)=O)[C@@H](C)C1` [US20250163061, Compound 28], the negative-log EC50 (pEC50) was above 7.12.
For the compound `Cc1c(CN2CCC3(CC2)CN(c2ncnc4ccc(CC(F)(F)F)cc24)C3)ccc2c1cc(C#N)n2CC(C)N1CCCN(S(C)(=O)=O)CC1` (stereo not given) [US20250163061, Compound 29], the negative-log EC50 (pEC50) is above 7.12.
Compound `Cc1c(CN2CCC3(CC2)CN(c2ncnc4cc(F)c(CC(F)(F)F)cc24)C3)ccc2c1cc(C#N)n2CC(C)N1CCN(S(C)(=O)=O)CC1` (stereo not given) [US20250163061, Compound 30] showed a pEC50 above 7.12.
For `Cc1c(CN2CCC3(CC2)CN(c2ncnc4ccc(CC(F)(F)F)cc24)C3)ccc2c1cc(C#N)n2C[C@H]1CC[C@H](NS(C)(=O)=O)CC1` [US20250163061, Compound 40], the pEC50 was above 7.12.
Take `Cc1c(CN2CCC3(CC2)CN(c2ncnc4ncc(CC(F)(F)F)nc24)C3)ccc2c1cc(C#N)n2CC(C)N1CCN(S(C)(=O)=O)CC1` (stereo not given) [US20250163061, Compound 42]: the pEC50 is above 7.12.
Take `Cc1c(CN2CCC3(CC2)CN(c2ncnc4ccc(CC(F)(F)F)cc24)C3)ccc2c1cc(C#N)n2CCCCN1CCN(S(C)(=O)=O)CC1` [US20250163061, Compound 44]: the pEC50 is above 7.12.
The compound `Cc1c(CN2CCC3(CC2)CN(c2ncnc4cnc(CC(F)(F)F)cc24)C3)ccc2c1cc(C#N)n2CC(C)N1CCN(S(C)(=O)=O)CC1` (stereo not given) [US20250163061, Compound 45] had a negative-log EC50 (pEC50) above 7.12.
Turning to `Cc1c(CN2CCC3(CC2)CN(c2ncnc4ccc(CC(F)(F)F)cc24)C3)ccc2c1cc(C#N)n2CC1CNC(=O)C1` (stereo not given) [US20250163061, Compound 51], the pEC50 was above 7.12.
On to `Cc1c(CN2CCC3(CC2)CN(c2ncnc4ccc(CC(F)(F)F)cc24)C3)ccc2c1cc(C#N)n2CC1CCC(=O)N1` (stereo not given) [US20250163061, Compound 52], for which the negative-log EC50 (pEC50) was above 7.12.
`Cc1c(CN2CCC3(CC2)CN(c2ncnc4ccc(CC(F)(F)F)c(F)c24)C3)ccc2c1cc(C#N)n2C[C@H](C)N1CCN(S(C)(=O)=O)CC1` [US20250163061, Compound 57] showed a negative logarithm of the EC50 (pEC50) above 7.12.
In turn, `CNc1nc(N2CC3(CCN(Cc4ccc5c(cc(C#N)n5C[C@@H]5CNC(=O)CO5)c4C)CC3)C2)c2cc(CC(F)(F)F)ccc2n1` [US20250163061, Compound 58] showed a negative logarithm of the EC50 (pEC50) above 7.12.
The compound `CC(=O)NC12CC(Cn3c(C#N)cc4c(C)c(CN5CCC6(CC5)CN(c5ncnc7ccc(CC(F)(F)F)cc57)C6)ccc43)(C1)C2` [US20250163061, Compound 59] had a pEC50 above 7.12.
For the compound `CNC(=O)NC12CC(Cn3c(C#N)cc4c(C)c(CN5CCC6(CC5)CN(c5ncnc7ccc(CC(F)(F)F)cc57)C6)ccc43)(C1)C2` [US20250163061, Compound 60], the pEC50 was above 7.12.
Under `Cc1c(CN2CCC3(CC2)CN(c2ncnc4ccc(CC(F)(F)F)cc24)C3)ccc2c1cc(C#N)n2CC12CC(NS(N)(=O)=O)(C1)C2` [US20250163061, Compound 61] stands above 7.12; under `Cc1c(CN2CCC3(CC2)CN(c2ncnc4ccc(CC(F)(F)F)cc24)C3)ccc2c1cc(C#N)n2CC12CC(N3CC(=O)NS3(=O)=O)(C1)C2` [US20250163061, Compound 62], above 7.12; under `C=CC(=O)N1CCN(C(C)Cn2c(C#N)cc3c(C)c(CN4CCC5(CC4)CN(c4ncnc6ccc(CC(F)(F)F)cc46)C5)ccc32)CC1` (stereo not given) [US20250163061, Compound 63], above 7.12.
As for `Cc1c(CN2CCC3(CC2)CN(c2ncnc4ccc(CC(F)(F)F)cc24)C3)ccc2c1cc(C#N)n2CC(C)N1CCN(S(=O)(=O)C(C)C)CC1` (stereo not given) [US20250163061, Compound 64], the pEC50 is above 7.12.
Consider `C=CC(=O)N1CCN(CCCCn2c(C#N)cc3c(C)c(CN4CCC5(CC4)CN(c4ncnc6ccc(CC(F)(F)F)cc46)C5)ccc32)CC1` [US20250163061, Compound 65], for which the negative-log EC50 (pEC50) was above 7.12.
